Data on 16 compounds can be found in patent US20220298163A1, “BTK INHIBITORS WITH IMPROVED DUAL SELECTIVITY” (BEIGENE, LTD., priority 2017, published 2022).

One test concerns the target T1, Tec (Homo sapiens, UniProt P42680).
T1 sequence (P42680 1-631): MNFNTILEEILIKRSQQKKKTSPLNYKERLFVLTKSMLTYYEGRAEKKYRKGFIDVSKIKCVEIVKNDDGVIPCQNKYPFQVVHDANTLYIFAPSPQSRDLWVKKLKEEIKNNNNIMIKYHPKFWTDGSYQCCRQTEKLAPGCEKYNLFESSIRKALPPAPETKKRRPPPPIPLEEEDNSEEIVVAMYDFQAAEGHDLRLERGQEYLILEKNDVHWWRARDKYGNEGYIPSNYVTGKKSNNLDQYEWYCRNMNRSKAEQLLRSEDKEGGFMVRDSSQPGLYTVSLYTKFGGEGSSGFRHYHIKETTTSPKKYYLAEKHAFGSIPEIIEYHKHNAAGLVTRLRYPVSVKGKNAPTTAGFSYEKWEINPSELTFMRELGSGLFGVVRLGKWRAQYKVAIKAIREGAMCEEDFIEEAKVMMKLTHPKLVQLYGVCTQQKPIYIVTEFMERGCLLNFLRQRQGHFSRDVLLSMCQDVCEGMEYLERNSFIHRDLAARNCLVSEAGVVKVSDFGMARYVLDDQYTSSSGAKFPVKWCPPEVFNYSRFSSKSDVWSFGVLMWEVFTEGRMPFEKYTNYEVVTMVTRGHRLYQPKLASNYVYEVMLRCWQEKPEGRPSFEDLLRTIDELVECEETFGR
As to the kind of experiment: Biochemical kinase selectivity: IC50 determination of Tec. The settings on record: for IC50: TR-FRET, 280 μM ATP; for Fold of Tec/Btk: ratio of IC50 values. (In general: In TR-FRET formats the signal depends on donor and acceptor labels being close together.)

In test [1] the target is T2, phosphorylated Btk at Tyr223 (Homo sapiens, UniProt Q06187).
T2 construct: determine the endogenous levels of phosphorylated Btk at Tyr223; endogenous in cells; host or cells: Ramos cells (CRL-1596, ATCC)
As to the kind of experiment: Btk pY223 cellular assay (HTRF, Ramos cells). The format is cell-based. To be noted: compound 3 hours, pervanadate or Na3VO4 stimulation, read-out: IC50 (nM) in cell Btk pY223.
Protocol: Btk pY223 cellular assay is an HTRF based assay intended to determine the endogenous levels of phosphorylated Btk at Tyr223.
Briefly, Ramos cells were serum starved in 0.5% FBS-containing RPMI1640 overnight. The cells were then incubated with interested compounds at various concentrations in a CO2 incubator for 3 hours. After the incubation, cells were stimulated with 1 mM pervanadate (PV) or Na3VO4 (OV) for 20 min. Then, the cells were collected and lysed with 1× lysis buffer at RT for 10 min (4× lysis buffer supplied in the kit). 1× antibody mix was prepared by diluting anti-Btk-d2 and anti-pBtk-K in detection buffer (supplied in the kit). […] After mixing gently and spinning briefly, the plate was sealed up and kept in dark at RT for 18 hours. […] IC50 values were calculated with GraphPad Prism software using the sigmoidal dose-response function.

Another test concerns the target EGFR (Homo sapiens, UniProt P00533). Nature of the test: Biochemical kinase selectivity: IC50 determination of EGFR. To be noted: for IC50: TR-FRET, 20 μM ATP; for Fold of EGFR/Btk: ratio of IC50 values.
Test [2] deals with T3, Btk kinase (aa2-659, Carna Biosciences) (Homo sapiens, UniProt Q06187).
T3 construct: purchased Carna Biosciences
Nature of the test: Btk kinase enzymatic assay (TR-FRET). The class given is biochemical. The settings on record: for IC50: TR-FRET, 30 μM ATP, compound incubated with kinase 60 minutes.

T3 sequence (Q06187 2-659): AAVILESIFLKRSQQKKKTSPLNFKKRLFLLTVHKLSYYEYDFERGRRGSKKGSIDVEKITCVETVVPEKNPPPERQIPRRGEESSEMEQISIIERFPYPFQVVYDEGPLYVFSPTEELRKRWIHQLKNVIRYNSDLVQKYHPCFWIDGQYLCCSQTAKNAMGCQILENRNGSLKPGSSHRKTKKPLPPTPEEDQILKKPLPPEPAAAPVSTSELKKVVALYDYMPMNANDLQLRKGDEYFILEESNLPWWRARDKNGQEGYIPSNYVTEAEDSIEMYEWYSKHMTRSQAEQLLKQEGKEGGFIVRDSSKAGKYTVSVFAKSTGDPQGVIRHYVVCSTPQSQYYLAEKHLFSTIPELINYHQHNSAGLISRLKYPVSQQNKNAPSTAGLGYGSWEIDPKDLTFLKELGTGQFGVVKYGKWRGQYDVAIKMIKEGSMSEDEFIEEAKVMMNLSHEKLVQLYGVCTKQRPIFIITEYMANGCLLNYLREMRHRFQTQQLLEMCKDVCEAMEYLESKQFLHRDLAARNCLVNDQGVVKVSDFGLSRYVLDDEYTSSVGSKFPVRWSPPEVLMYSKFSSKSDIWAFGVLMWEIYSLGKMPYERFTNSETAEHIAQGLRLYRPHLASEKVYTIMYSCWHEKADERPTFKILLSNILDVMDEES
T2 sequence (Q06187 whole entry): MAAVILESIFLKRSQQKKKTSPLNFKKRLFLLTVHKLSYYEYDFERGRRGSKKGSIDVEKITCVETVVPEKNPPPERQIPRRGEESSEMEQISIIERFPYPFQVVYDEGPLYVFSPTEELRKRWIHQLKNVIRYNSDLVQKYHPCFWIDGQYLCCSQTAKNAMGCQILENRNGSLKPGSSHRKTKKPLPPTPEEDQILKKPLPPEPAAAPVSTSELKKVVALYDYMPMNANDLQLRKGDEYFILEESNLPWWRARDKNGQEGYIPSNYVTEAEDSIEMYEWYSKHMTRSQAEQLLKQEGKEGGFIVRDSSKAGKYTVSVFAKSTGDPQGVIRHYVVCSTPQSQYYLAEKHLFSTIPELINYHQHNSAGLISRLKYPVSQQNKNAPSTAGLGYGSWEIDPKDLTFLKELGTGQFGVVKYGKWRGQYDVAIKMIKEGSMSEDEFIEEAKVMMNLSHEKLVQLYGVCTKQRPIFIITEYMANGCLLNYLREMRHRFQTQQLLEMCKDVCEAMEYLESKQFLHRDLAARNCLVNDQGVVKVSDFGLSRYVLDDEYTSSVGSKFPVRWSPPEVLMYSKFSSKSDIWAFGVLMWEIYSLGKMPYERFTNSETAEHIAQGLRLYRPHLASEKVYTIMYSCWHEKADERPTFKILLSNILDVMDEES
Sequence of EGFR (P00533 25-1210): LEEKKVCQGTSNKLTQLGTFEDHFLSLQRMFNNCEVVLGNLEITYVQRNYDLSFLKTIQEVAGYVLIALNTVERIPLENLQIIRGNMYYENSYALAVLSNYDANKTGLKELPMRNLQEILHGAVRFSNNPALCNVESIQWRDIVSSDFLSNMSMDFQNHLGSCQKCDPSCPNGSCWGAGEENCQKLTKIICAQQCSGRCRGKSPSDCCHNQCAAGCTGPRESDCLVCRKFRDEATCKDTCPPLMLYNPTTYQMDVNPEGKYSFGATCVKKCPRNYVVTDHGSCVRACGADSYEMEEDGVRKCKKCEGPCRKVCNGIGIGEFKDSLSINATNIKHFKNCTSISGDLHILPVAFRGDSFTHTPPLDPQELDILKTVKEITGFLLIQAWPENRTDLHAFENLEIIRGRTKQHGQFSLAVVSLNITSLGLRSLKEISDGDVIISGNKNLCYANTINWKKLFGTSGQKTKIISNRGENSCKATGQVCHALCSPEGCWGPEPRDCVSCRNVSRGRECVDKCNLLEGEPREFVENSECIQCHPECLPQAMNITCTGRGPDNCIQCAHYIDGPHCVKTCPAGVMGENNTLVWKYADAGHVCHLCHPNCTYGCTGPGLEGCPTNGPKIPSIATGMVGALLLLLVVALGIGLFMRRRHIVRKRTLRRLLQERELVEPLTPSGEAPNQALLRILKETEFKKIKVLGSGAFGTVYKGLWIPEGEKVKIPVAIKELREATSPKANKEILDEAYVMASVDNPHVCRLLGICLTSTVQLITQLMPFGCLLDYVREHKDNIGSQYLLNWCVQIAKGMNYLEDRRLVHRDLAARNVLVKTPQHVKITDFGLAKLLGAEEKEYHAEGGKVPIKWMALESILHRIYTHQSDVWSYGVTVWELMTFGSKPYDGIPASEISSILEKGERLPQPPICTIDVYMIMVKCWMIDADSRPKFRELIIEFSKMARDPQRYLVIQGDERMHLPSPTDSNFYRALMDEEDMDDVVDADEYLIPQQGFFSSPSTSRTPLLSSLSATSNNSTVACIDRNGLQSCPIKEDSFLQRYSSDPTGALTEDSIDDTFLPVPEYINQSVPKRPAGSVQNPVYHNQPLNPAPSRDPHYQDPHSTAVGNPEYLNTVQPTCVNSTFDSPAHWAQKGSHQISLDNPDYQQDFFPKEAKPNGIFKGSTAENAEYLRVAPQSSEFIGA

The IC50 is the concentration at which inhibition is half-maximal. Turning to `C=CC(=O)Nc1ccccc1C1CCNc2c(C(N)=O)c(-c3cc(Cl)c(OC)c(Cl)c3)nn21` (centres unmarked) [169^#], the IC50 against Tec turned out to be 37 nM; in test [1] it was 28.2 nM; on EGFR it was 0.54 nM.
Regarding `C=CC(=O)N1CCC(C2CCNc3c(C(N)=O)c(-c4cc(Cl)c(C)c(Cl)c4)nn32)CC1` (centres unmarked) [Example A7, 7-(1-acryloylpiperidin-4-yl)-2-(3,5-dichloro-4-methylphenyl)-4,5,6,7-tetrahydropyrazolo[1,5-a]pyrimidine-3-carboxamide], the IC50 came to 4.1 nM in test [2], 254 nM at Tec, 148 nM in test [1] and 1190 nM on EGFR. At Tec, the “Fold of Tec/Btk” value came out at 62 fold. The “Fold of EGFR/Btk” value on EGFR came to 289 fold.
On to `C=CC(=O)N1CCC(C2CCNc3c(C(N)=O)c(-c4cc(OC)c(I)c(OC)c4)nn32)CC1` (centres unmarked) [Example A8, 7-(1-acryloylpiperidin-4-yl)-2-(4-iodo-3,5-dimethoxyphenyl)-4,5, tetrahydropyrazolo[1,5-a]pyrimidine-3-carboxamide], for which the concentration for half-maximal inhibition (IC50) in test [2] worked out at 0.93 nM; on Tec, 130 nM; in test [1], 14.8 nM; against EGFR, 1380 nM.
For the compound `C=CC(=O)N1CCC(C2CCNc3c(C(N)=O)c(-c4cc(OC)c(C)c(OCC)c4)nn32)CC1` (centres unmarked) [Example A12, 7-(1-acryloylpiperidin-4-yl)-2-(3-ethoxy-5-methoxy-4-methylphenyl)-4,5,6,7-tetrahydropyrazolo[1,5-a]pyrimidine-3-carboxamide], the half-inhibitory concentration (IC50) was 4.7 nM in test [2], 289 nM against Tec, 37.3 nM in test [1] and above 10000 nM at EGFR. Also, the “Fold of Tec/Btk” value on Tec is listed as 61 fold.
Turning to `C=CC(=O)N1CCC(C2CCNc3c(C(N)=O)c(-c4cc(C)c(Br)c(C)c4)nn32)CC1` (centres unmarked) [Example A20, 7-(1-acryloylpiperidin-4-yl)-2-(4-bromo-3,5-dimethylphenyl)-4,5,6,7-tetrahydropyrazolo[1,5-a]pyrimidine-3-carboxamide], in test [2], the “affinity / inhibitory activity for Btk (in words)” value (“affinity / inhibitory activity” below) is reported as “high affinity for Btk”. Moreover, the half-inhibitory concentration (IC50) in test [2] was found to be 3.3 nM; on Tec, 352 nM; in test [1], 143 nM; on EGFR it was 496 nM. The “Fold of Tec/Btk” value on Tec is listed as 107 fold. Also, the “Fold of EGFR/Btk” value at EGFR was 150 fold.
`C=CC(=O)N1CCC(C2CCNc3c(C(N)=O)c(-c4cc(OC)c(C5CC5)c(OCC)c4)nn32)CC1` (centres unmarked) [Example A33, 7-(1-acryloylpiperidin-4-yl)-2-(4-cyclopropyl-3-ethoxy-5-methoxyphenyl)-4,5,6,7-tetrahydropyrazolo[1,5-a]pyrimidine-3-carboxamide]: in test [2], the “affinity / inhibitory activity” value is listed as “high affinity for Btk” and inhibition was half-maximal at 2.7 nM (IC50). In addition, on Tec, the IC50 came out at 499 nM and the “Fold of Tec/Btk” value was found to be 185 fold. The 50% inhibitory concentration (IC50) in test [1] is 42.9 nM. At EGFR, the half-inhibitory concentration (IC50) is 9390 nM and the “Fold of EGFR/Btk” value was determined as 3479 fold.
Regarding `C=CC(=O)N1CCC(C2CCNc3c(C(N)=O)c(-c4cc(C)c(C)c(OC)c4)nn32)CC1` (centres unmarked) [Example A34, 7-(1-acryloylpiperidin-4-yl)-2-(3-methoxy-4,5-dimethylphenyl)-4,5,6,7-tetrahydropyrazolo[1,5-a]pyrimidine-3-carboxamide], the “affinity / inhibitory activity” value in test [2] was “high affinity for Btk”. Further, the IC50 turned out to be 1.8 nM in test [2], 207 nM against Tec, 41.8 nM in test [1] and 405 nM against EGFR. Also, the “Fold of Tec/Btk” value on Tec was 115 fold. The “Fold of EGFR/Btk” value on EGFR was 225 fold.
As to `C=CC(=O)N1CCC(C2CCNc3c(C(N)=O)c(-c4cc(Cl)c(C)c(OC)c4)nn32)CC1` (centres unmarked) [Example A35, 7-(1-acryloylpiperidin-4-yl)-2-(3-chloro-5-methoxy-4-methylphenyl)-4,5,6,7-tetrahydropyrazolo[1,5-a]pyrimidine-3-carboxamide], the IC50 in test [2] was 2.3 nM; on Tec it was 174 nM; in test [1] it was 65 nM; against EGFR, 1150 nM. Moreover, the “Fold of Tec/Btk” value at Tec is on record as 75.6 fold. In addition, at EGFR, the “Fold of EGFR/Btk” value turned out to be 500 fold.
Consider `C=CC(=O)N1CCC(C2CCNc3c(C(N)=O)c(-c4cc(Cl)c(C5CC5)c(OC)c4)nn32)CC1` (centres unmarked) [Example A36, 7-(1-acryloylpiperidin-4-yl)-2-(3-chloro-4-cyclopropyl-5-methoxyphenyl)-4,5,6,7-tetrahydropyrazolo[1,5-a]pyrimidine-3-carboxamide], for which, in test [2], the “affinity / inhibitory activity” value is listed as “high affinity for Btk” and it took 1.1 nM to reach half-maximal inhibition (IC50). Moreover, on Tec, half-maximal inhibition (IC50) required 137 nM and the “Fold of Tec/Btk” value was 125 fold. Further, the IC50 in test [1] stood at 50.5 nM. In addition, on EGFR, it took 2570 nM to reach half-maximal inhibition (IC50) and the “Fold of EGFR/Btk” value is 2339 fold.
With `C=CC(=O)N1CCC(C2CCNc3c(C(N)=O)c(-c4cc(OC)c(C(F)(F)F)c(OC)c4)nn32)CC1` (centres unmarked) [Example A38, 7-(1-acryloylpiperidin-4-yl)-2-(3,5-dimethoxy-4-(trifluoromethyl)phenyl)-4,5,6,7-tetrahydropyrazolo[1,5-a]pyrimidine-3-carboxamide], the half-inhibitory concentration (IC50) in test [2] came out at 2.8 nM; on Tec, 264 nM; in test [1] it was 36.7 nM; against EGFR it was 2250 nM. At Tec, the “Fold of Tec/Btk” value is given as 94 fold. In addition, the “Fold of EGFR/Btk” value on EGFR is given as 803 fold.
For the compound `C=CC(=O)N1CCC(C2CCNc3c(C(N)=O)c(-c4cc(OC)c(/C=C/c5ccccc5)c(OC)c4)nn32)CC1` (centres unmarked) [Example A41, (E)-7-(1-acryloylpiperidin-4-yl)-2-(3,5-dimethoxy-4-styrylphenyl)-4,5,6,7-tetrahydropyrazolo[1,5-a]pyrimidine-3-carboxamide], the IC50 stood at 3.3 nM in test [2], 101 nM on Tec, 66.8 nM in test [1] and 1510 nM against EGFR. For the same compound, at Tec, the “Fold of Tec/Btk” value was found to be 31 fold. On EGFR, the “Fold of EGFR/Btk” value worked out at 458 fold.
Consider `C=CC(=O)N1CCC(C2CCNc3c(C(N)=O)c(-c4cc(OC)c(C(C)c5ccccc5)c(OC)c4)nn32)CC1` (centres unmarked) [Example A44, 7-(1-acryloylpiperidin-4-yl)-2-(3,5-dimethoxy-4-(1-phenylethyl)phenyl)-4,5,6,7-tetrahydropyrazolo[1,5-a]pyrimidine-3-carboxamide], for which, in test [2], the IC50 is 4.9 nM. Also, at Tec, 35 nM corresponded to half-maximal inhibition (IC50) and the “Fold of Tec/Btk” value was 7.1 fold. Further, at EGFR, the IC50 amounted to 3170 nM and the “Fold of EGFR/Btk” value was determined as 647 fold.
In the case of `C=CC(=O)N1CCC(C2CCNc3c(C(N)=O)c(-c4cc(OC)c(C5CC5)c(OC(C)C)c4)nn32)CC1` (centres unmarked) [Example A45, 7-(1-acryloylpiperidin-4-yl)-2-(4-cyclopropyl-3-isopropoxy-5-methoxyphenyl)-4,5,6,7-tetrahydropyrazolo[1,5-a]pyrimidine-3-carboxamide], the figures for the IC50 (in test [2]; on Tec; against EGFR) were 4.4 nM, 362 nM and above 10000 nM, respectively. Moreover, the “Fold of Tec/Btk” value at Tec came to 82 fold.
For the compound `C=CC(=O)N1CCC(C2CCNc3c(C(N)=O)c(-c4cc(OC)c(C(C)O)c(OC)c4)nn32)CC1` (centres unmarked) [Example A46, 7-(1-acryloylpiperidin-4-yl)-2-(4-(1-hydroxyethyl)-3,5-dimethoxyphenyl)-4,5,6,7-tetrahydropyrazolo[1,5-a]pyrimidine-3-carboxamide], in test [2], the “affinity / inhibitory activity” value is recorded as “high affinity for Btk” and inhibition was half-maximal at 5.9 nM (IC50). For the same compound, on Tec, the IC50 was 974 nM and the “Fold of Tec/Btk” value was found to be 165 fold. Moreover, the half-maximal inhibitory concentration (IC50) in test [1] is 258 nM. Further, on EGFR, the IC50 came to 3810 nM and the “Fold of EGFR/Btk” value is reported as 646 fold.
Take `C#CC(=O)N1CCC(C2CCNc3c(C(N)=O)c(-c4cc(OC)c(C)c(OC)c4)nn32)CC1` (centres unmarked) [Example A50, 2-(3,5-dimethoxy-4-methylphenyl)-7-(1-propioloylpiperidin-4-yl)-4,5,6,7-tetrahydropyrazolo[1,5-a]pyrimidine-3-carboxamide]: the half-inhibitory concentration (IC50) in test [2] stood at 0.34 nM; against Tec it was 3.2 nM; in test [1], 12.3 nM; against EGFR it was 599 nM. In addition, the “Fold of Tec/Btk” value on Tec is recorded as 9.4 fold. In addition, the “Fold of EGFR/Btk” value on EGFR worked out at 1762 fold.
As for `C=CC(=O)N1CC(C2CCNc3c(C(N)=O)c(-c4cc(OC)c(Br)c(OC)c4)nn32)C1` (centres unmarked) [Example B2, 7-(1-acryloylazetidin-3-yl)-2-(4-bromo-3,5-dimethoxyphenyl)-4,5,6,7-tetrahydropyrazolo[1,5-a]pyrimidine-3-carboxamide], the half-maximal inhibitory concentration (IC50) was 5 nM in test [2], 172 nM on Tec, 45.7 nM in test [1] and 1750 nM at EGFR. Besides, on Tec, the “Fold of Tec/Btk” value is reported as 34 fold. Also, the “Fold of EGFR/Btk” value at EGFR was 350 fold.
